Assay results from patent US6479070B1, “Compositions containing pinolenic acid and its use as a health component” (Unilever Patent Holdings, priority 1999, dated 2002).

Tested on: PMA stimulated PGE2 Levels in Human Skin Fibroblasts
Conditions: primary human foreskin fibroblasts, pinolenic acid even at levels of 10 ng/ml, 24 h pre-incubation
Description: A reduction of the levels of ICAM and PGE2 is indicative for the anti-inflammatory effect. Primary human foreskin fibroblasts at passage 2 (P2) were seeded into 96-well plates at 10000 cells/well and maintained for 24 hours in an atmosphere of 5% carbon dioxide in Dulbeccos Modified Eagles Medium (DMEM) supplemented with 10% foetal calf serum. […] PMA represents an external stressor which induces oxidative stress and inflammatory responses in cells. The fibroblasts/media were then analysed as described below immediately or snap frozen in liquid nitrogen and stored at −70° C. for future analysis. […] PGE2 levels in the medium were determined with a Biotrak PGE2 immunoassay kit (Amersham, UK). The assay is based on the competition between unlabelled PGE2 in the sample and a fixed quantity of horseradish peroxidase labelled PGE2 for a limited amount of fixed PGE2 specific antibody. Concentrations of unlabelled sample PGE2 are determined according to a standard curve which was obtained at the same time.

For `CCCCC/C=C\C/C=C\CC/C=C\CCCC(=O)O` [Pinolenic acid, 5,9,12 C18:3 fatty acid], the “inflammatory response as measured by PGE2 production” value was “dramatically reduces the inflammatory response”.
